Experimental data: the NIST ThermoML archive (doi:10.1021/je8007217)

Legend:
[1] = xn = mol fraction of the nth substance listed; conditions: 298.15 K, 101 kPa, Liquid; for viscosity: Capillary tube (Ostwald / Ubbelohde) method; for mass density: Pycnometric method
[2] = 298.15 K, 101 kPa, Liquid; for viscosity: Capillary tube (Ostwald / Ubbelohde) method; for mass density: Pycnometric method

O=C1CCCCC1 [cyclohexanone] + CCOC(C)=O
[1]
Conditions | mass density [kg/m3] | viscosity [mPa·s]
x1 = 0.0907 | 898.3 | 0.47
x1 = 0.1833 | 902.6 | 0.521
x1 = 0.2778 | 907.3 | 0.585
x1 = 0.3744 | 912.3 | 0.667
x1 = 0.473 | 917.5 | 0.764
x1 = 0.5738 | 922.6 | 0.892
x1 = 0.6769 | 927.6 | 1.058
x1 = 0.7822 | 932.6 | 1.289
x1 = 0.8899 | 937.3 | 1.604
x1 = 1 | 941.6 | 2.02

COC(C)=O [methyl ethanoate]
[2]
Conditions | mass density [kg/m3] | viscosity [mPa·s]
– | 926.8 | 0.38

O=C1CCCCC1 [cyclohexanone]
[2]
Conditions | mass density [kg/m3] | viscosity [mPa·s]
– | 941.6 | 2.02

O=C1CCCCC1 [cyclohexanone] + COC(C)=O
[1]
Conditions | mass density [kg/m3] | viscosity [mPa·s]
x1 = 0.0774 | 927.4 | 0.407
x1 = 0.1587 | 928.5 | 0.445
x1 = 0.2444 | 929.9 | 0.504
x1 = 0.3347 | 931.3 | 0.577
x1 = 0.4301 | 932.9 | 0.666
x1 = 0.531 | 934.6 | 0.779
x1 = 0.6378 | 936.4 | 0.936
x1 = 0.7512 | 938.2 | 1.163
x1 = 0.8717 | 940.2 | 1.488
x1 = 1 | 941.6 | 2.02

C1CCCCC1 [cyclohexane] + CCCOC(C)=O
[1], x1 = 1
Conditions | mass density [kg/m3] | viscosity [mPa·s]
– | 773.8 | 0.892

COC(C)=O [methyl ethanoate] + O=C1CCCCC1
[1], x2 = 0
Conditions | mass density [kg/m3] | viscosity [mPa·s]
– | 926.8 | 0.38

CCOC(C)=O [ethyl acetate] + C1CCCCC1
[1]
Conditions | mass density [kg/m3] | viscosity [mPa·s]
x2 = 0 | 894.5 | 0.426
x2 = 0.1042 | 877 | 0.432
x2 = 0.2074 | 861.2 | 0.436
x2 = 0.3097 | 847 | 0.441
x2 = 0.4111 | 833.9 | 0.462
x2 = 0.5115 | 822.1 | 0.493
x2 = 0.611 | 811.2 | 0.533
x2 = 0.7095 | 801.2 | 0.585
x2 = 0.8072 | 791.8 | 0.653
x2 = 0.904 | 782.7 | 0.749

C1CCCCC1 [cyclohexane] + COC(C)=O
[1], x1 = 1
Conditions | mass density [kg/m3] | viscosity [mPa·s]
– | 773.8 | 0.892

CCOC(C)=O [ethyl acetate] + O=C1CCCCC1
[1], x2 = 0
Conditions | mass density [kg/m3] | viscosity [mPa·s]
– | 894.5 | 0.426

C1CCCCC1 [cyclohexane] + CCOC(C)=O
[1], x1 = 1
Conditions | mass density [kg/m3] | viscosity [mPa·s]
– | 773.8 | 0.892

CCCOC(C)=O [propyl ethanoate]
[2]
Conditions | mass density [kg/m3] | viscosity [mPa·s]
– | 883 | 0.551

C1CCCCC1 [cyclohexane] + O=C1CCCCC1
[1], x1 = 1
Conditions | mass density [kg/m3] | viscosity [mPa·s]
– | 773.8 | 0.892

CCCOC(C)=O [propyl ethanoate] + C1CCCCC1
[1]
Conditions | mass density [kg/m3] | viscosity [mPa·s]
x2 = 0 | 883 | 0.551
x2 = 0.1188 | 868.5 | 0.54
x2 = 0.2328 | 854.7 | 0.548
x2 = 0.3421 | 841.8 | 0.554
x2 = 0.4472 | 829.9 | 0.572
x2 = 0.5482 | 819.3 | 0.587
x2 = 0.6454 | 809.3 | 0.625
x2 = 0.739 | 800 | 0.663
x2 = 0.8292 | 791.1 | 0.715
x2 = 0.9161 | 782.3 | 0.786

O=C1CCCCC1 [cyclohexanone] + CCCOC(C)=O
[1]
Conditions | mass density [kg/m3] | viscosity [mPa·s]
x1 = 0.1036 | 888.2 | 0.609
x1 = 0.2064 | 894.2 | 0.666
x1 = 0.3084 | 900.4 | 0.731
x1 = 0.4096 | 906.5 | 0.821
x1 = 0.5099 | 912.4 | 0.926
x1 = 0.6095 | 918.4 | 1.049
x1 = 0.7083 | 924.3 | 1.199
x1 = 0.8063 | 930.2 | 1.407
x1 = 0.9035 | 936.1 | 1.685
x1 = 1 | 941.6 | 2.02

CCOC(C)=O [ethyl acetate]
[2]
Conditions | mass density [kg/m3] | viscosity [mPa·s]
– | 894.5 | 0.426

CCCOC(C)=O [propyl ethanoate] + O=C1CCCCC1
[1], x2 = 0
Conditions | mass density [kg/m3] | viscosity [mPa·s]
– | 883 | 0.551

C1CCCCC1 [cyclohexane]
[2]
Conditions | mass density [kg/m3] | viscosity [mPa·s]
– | 773.8 | 0.892

COC(C)=O [methyl ethanoate] + C1CCCCC1
[1]
Conditions | mass density [kg/m3] | viscosity [mPa·s]
x2 = 0 | 926.8 | 0.38
x2 = 0.0891 | 903.7 | 0.381
x2 = 0.1804 | 883.3 | 0.383
x2 = 0.2739 | 864.7 | 0.388
x2 = 0.3698 | 848.5 | 0.407
x2 = 0.4681 | 833.1 | 0.437
x2 = 0.569 | 819.4 | 0.477
x2 = 0.6725 | 806.4 | 0.535
x2 = 0.7788 | 794.9 | 0.603
x2 = 0.8879 | 784.2 | 0.708

O=C1CCCCC1 [cyclohexanone] + C1CCCCC1
[1]
Conditions | mass density [kg/m3] | viscosity [mPa·s]
x2 = 0 | 941.6 | 2.02
x2 = 0.1147 | 921.8 | 1.813
x2 = 0.2257 | 903 | 1.638
x2 = 0.3332 | 884.8 | 1.475
x2 = 0.4374 | 867.1 | 1.335
x2 = 0.5384 | 849.6 | 1.225
x2 = 0.6363 | 832.5 | 1.126
x2 = 0.7313 | 816 | 1.038
x2 = 0.8235 | 800 | 0.965
x2 = 0.913 | 785.9 | 0.921
